According to patent US8557796B2, “Substituted 1-oxa-2,8-diaza-spiro [4,5] dec-2-ene derivatives and related treatment methods” (Gruenenthal GmbH, priority 2001, dated 2013):

These compounds were tested against T1, 5HT-uptake (Rattus norvegicus, UniProt P31652) (assay: Serotonin uptake inhibition (5HT uptake) in synaptosomes). Details: rat brain synaptosomes.
T1 construct: synaptosomes from rat brain regions were freshly isolated; from tissue; host or cells: P2 synaptosome fraction from rat brain regions
Type: biochemical
Text: Tests on Serotonin Uptake (5HT Uptake Inhibition)

T1 sequence (P31652 whole entry): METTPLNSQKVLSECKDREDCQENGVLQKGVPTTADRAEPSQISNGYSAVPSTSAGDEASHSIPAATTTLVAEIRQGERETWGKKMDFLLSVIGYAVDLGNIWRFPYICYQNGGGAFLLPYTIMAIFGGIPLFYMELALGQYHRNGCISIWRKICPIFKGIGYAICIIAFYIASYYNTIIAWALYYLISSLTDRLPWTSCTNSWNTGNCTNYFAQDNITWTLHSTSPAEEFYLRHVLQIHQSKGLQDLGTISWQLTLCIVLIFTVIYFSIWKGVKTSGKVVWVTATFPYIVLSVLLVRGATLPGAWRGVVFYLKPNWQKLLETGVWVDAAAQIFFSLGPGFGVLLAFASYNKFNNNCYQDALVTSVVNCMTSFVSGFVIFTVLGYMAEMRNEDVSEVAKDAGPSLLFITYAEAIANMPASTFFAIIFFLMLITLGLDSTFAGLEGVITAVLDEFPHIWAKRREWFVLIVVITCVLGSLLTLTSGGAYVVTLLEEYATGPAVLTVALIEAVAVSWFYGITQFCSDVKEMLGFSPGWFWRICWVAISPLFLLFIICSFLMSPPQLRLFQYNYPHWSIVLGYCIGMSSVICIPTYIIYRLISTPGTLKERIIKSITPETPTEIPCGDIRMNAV

| SMILES | 5HT-uptake, 10 μM, % inhibition [%] | inhibition at 10 µM [%] |
| --- | --- | --- |
| CCOP(=O)(Cc1ccc(NC(=O)C2=NOC3(CCN(S(=O)(=O)Cc4ccccc4)CC3)C2)cc1)OCC [Example 2] | 55 |  |
| COc1ccc(CNC(=O)C2=NOC3(CCN(S(=O)(=O)c4cc(Cl)ccc4Cl)CC3)C2)cc1OC [Example 68, 8-(2,5-dichloro-benzenesulphonyl)-1-oxa-2,8-diaza-spiro[4,5]dec-2-ene-3-carboxylic acid 3,4-dimethoxy-benzylamide] |  | 52 |
| CN(C)S(=O)(=O)N1CCC2(CC1)CC(C(=O)NCc1ccc(C(F)(F)F)c(F)c1)=NO2 [Example 72, 8-dimethylsulphamoyl-1-oxa-2,8-diaza-spiro[4,5]dec-2-ene-3-carboxylic acid 3-fluoro-4-trifluoromethyl-benzylamide] |  | 42 |
| CCSCCNC(=O)C1=NOC2(CCN(S(=O)(=O)N(C)C)CC2)C1 [Example 161] | 44 |  |
| CCOc1ccccc1CNC(=O)C1=NOC2(CCN(S(=O)(=O)Cc3ccccc3)CC2)C1 [Example 51, 8-phenylmethanesulphonyl-1-oxa-2,8-diaza-spiro[4,5]dec-2-ene-3-carboxylic acid 2-ethoxy-benzylamide] |  | 49 |

These compounds were tested against T2, NA transporter (Rattus norvegicus, UniProt Q9WTR4) (assay: Noradrenalin uptake inhibition (NA-uptake) in synaptosomes). Details: rat hypothalamus synaptosomes.
T2 construct: synaptosomes from rat brain regions were freshly isolated; from tissue; host or cells: P2 synaptosome fraction from hypothalamus of male rat brain
Type: biochemical
Text: Tests on Noradrenalin Uptake Inhibition (NA-Uptake Inhibition)
In order to be able to carry out these in vitro studies, synaptosomes from rat brain regions were freshly isolated.

T2 sequence (Q9WTR4 1-597): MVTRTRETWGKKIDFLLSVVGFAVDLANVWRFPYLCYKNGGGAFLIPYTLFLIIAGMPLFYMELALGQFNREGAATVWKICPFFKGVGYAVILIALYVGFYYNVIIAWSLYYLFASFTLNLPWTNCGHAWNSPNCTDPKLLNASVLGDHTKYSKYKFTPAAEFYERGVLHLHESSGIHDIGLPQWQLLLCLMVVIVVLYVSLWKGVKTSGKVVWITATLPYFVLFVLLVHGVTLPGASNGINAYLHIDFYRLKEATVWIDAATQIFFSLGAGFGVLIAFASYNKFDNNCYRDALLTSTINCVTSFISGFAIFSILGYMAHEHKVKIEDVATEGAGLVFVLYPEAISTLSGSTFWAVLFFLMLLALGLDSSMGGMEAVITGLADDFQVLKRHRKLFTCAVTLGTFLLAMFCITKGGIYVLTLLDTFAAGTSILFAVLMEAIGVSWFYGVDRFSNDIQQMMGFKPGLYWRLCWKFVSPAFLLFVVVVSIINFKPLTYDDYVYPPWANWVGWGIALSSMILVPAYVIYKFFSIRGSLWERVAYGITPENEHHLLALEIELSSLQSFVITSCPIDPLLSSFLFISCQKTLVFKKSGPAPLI

| SMILES | inhibition at 10 µM [%] | NA-uptake, 10 μM, % inhibition [%] |
| --- | --- | --- |
| O=C(NCc1ccccc1F)C1=NOC2(CCN(S(=O)(=O)c3ccc(F)cc3)CC2)C1 [Example 207, 8-(4-fluoro-benzenesulphonyl)-1-oxa-2,8-diaza-spiro[4,5]dec-2-ene-3-carboxylic acid 2 fluorobenzylamide] | 50 |  |
| O=C(NC1CCCC1OCc1ccccc1)C1=NOC2(CCN(S(=O)(=O)c3cccs3)CC2)C1 (stereo not shown) [Example 47, 8-(thiophene-2-sulphonyl)-1-oxa-2,8-diaza-spiro[4,5]dec-2-ene-3-carboxylic acid (2-benzyloxy-cyclopentyl)-amide] | 92 |  |
| CC(C)CNC(=O)C1=NOC2(CCN(C(=O)c3cccc4ccccc34)CC2)C1 [Example 178, 8-(naphthalene-1-carbonyl)-1-oxa-2,8-diaza-spiro[4,5]dec-2-ene-3-carboxylic acid isobutyl-amide] | 51 |  |
| O=C(C1=NOC2(CCN(S(=O)(=O)Cc3ccccc3)CC2)C1)N1CC=C(c2ccc(F)cc2)CC1 [Example 215, [4-(4-fluoro-phenyl)-3,6-dihydro-2H-pyridin-1-yl]-(8-phenylmethanesulphonyl-1-oxa-2,8-diaza-spiro[4,5]dec-2-en-3-yl)-methanone] | 42 |  |
| Cc1onc(-c2c(F)cccc2Cl)c1C(=O)N1CCC2(CC1)CC(C(=O)NCc1ccccc1)=NO2 [Example 177, 8-[3-(2-chloro-6-fluorophenyl)-5-methyl-isoxazole-4-carbonyl]-1-oxa-2,8-diaza-spiro [4,5]dec-2-ene-3-carboxylic acid benzylamide] | 47 |  |
| CCOC(=O)N1CCC(NC(=O)C2=NOC3(CCN(S(=O)(=O)c4cccc(C(F)(F)F)c4)CC3)C2)CC1 [Example 122, 4-{[8-(3-trifluoromethyl-benzenesulphonyl)-1-oxa-2,8-diaza-spiro[4,5]dec-2-ene-3 carbonyl]-amino}-piperidine-1-carboxylic acid ethyl ester] | 41 |  |
| O=C(NCC(c1ccccc1)c1ccccc1)C1=NOC2(CCN(S(=O)(=O)c3ccc(Cl)s3)CC2)C1 [Example 79, 8-(5-chloro-thiophene-2-sulphonyl)-1-oxa-2,8-diaza-spiro[4,5]dec-2-ene-3-carboxylic acid (2,2-diphenyl-ethyl)-amide] | 58 |  |
| CC(NC(=O)C1=NOC2(CCN(S(=O)(=O)c3ccc(Cl)s3)CC2)C1)c1cccc2c1OCCO2 (stereo not shown) [Example 140, 8-(5-chloro-thiophene-2-sulphonyl)-1-oxa-2,8-diaza-spiro[4,5]dec-2-ene-3-carboxylic acid [1-(2,3-dihydro-benzo[1,4]dioxin-5-yl)-ethyl]-amide] | 83 |  |
| O=C(NCc1ccccc1)C1=NOC2(CCN(C(=O)c3ccc(Br)cc3)CC2)C1 [Example 212, 8-(4-bromo-benzoyl)-1-oxa-2,8-diaza-spiro[4,5]dec-2-ene-3-carboxylic acid benzylamide] | 55 |  |
| O=C(NCCCc1ccccc1)C1=NOC2(CCN(S(=O)(=O)c3ccc(F)cc3)CC2)C1 [Example 193, 8-(4-fluoro-benzenesulphonyl)-1-oxa-2,8-diaza-spiro[4,5]dec-2-ene-3-carboxylic acid (3-phenyl-propyl)-amide] | 47 |  |
| O=C(NCC1CC1)C1=NOC2(CCN(C(=O)c3cc(C(F)(F)F)ccc3Cl)CC2)C1 [Example 120, 8-(2-chloro-5-trifluoromethyl-benzoyl)-1-oxa-2,8-diaza-spiro(4,5]dec-2-ene-3-carboxylic acid cyclopropylmethyl-amide] | 40 |  |
| O=C(Nc1ccccc1)C1=NOC2(CCN(C(=O)c3ccc(Br)cc3)CC2)C1 [Example 181, 8-(4-bromo-benzoyl)-1-oxa-2,8-diaza-spiro[4,5]dec-2-ene-3-acarboxylic cid phenylamide] |  | 51 |
| COc1ccc(Br)cc1S(=O)(=O)N1CCC2(CC1)CC(C(=O)NC1CCCC1)=NO2 [Example 173, 8-(5-bromo-2-methoxy-benzenesulphonyl)-1-oxa-2,8-diaza-spiro[4,5]dec-2-ene-3-carboxylic acid cyclopentylamide] | 60 |  |
| O=C(NCc1cccs1)C1=NOC2(CCN(C(=O)c3cccc4ccccc34)CC2)C1 [Example 192, 8-(naphthalene-1-carbonyl)-1-oxa-2,8-diaza-spiro[4,5]dec-2-ene-3-carboxylic acid (thiophen-2-ylmethyl)-amide] | 41 |  |
| CC(NC(=O)C1=NOC2(CCN(S(=O)(=O)c3ccc(F)cc3)CC2)C1)C(=O)Nc1ccc2ccccc2c1 (stereo not shown) [Example 198, 8-(4-fluoro-benzenesulphonyl)-1-oxa-2,8-diaza-spiro[4,5]dec-2-ene-3-carboxylic acid [1-(naphthalen-2-ylcarbamoyl)ethyl]-amide] | 52 |  |
| CCOC(=O)CCNC(=O)C1=NOC2(CCN(S(=O)(=O)c3ccccc3Cl)CC2)C1 [Example 116, 3-{[8-(2-chloro-benzenesulphonyl)-1-oxa-2,8-diaza-spiro[4,5]dec-2-ene-3-carbonyl]-amino}-propionic acid ethyl ester] | 60 |  |
| Cc1ccc(S(=O)(=O)N2CCC3(CC2)CC(C(=O)N(CCc2ccccc2)Cc2ccccc2)=NO3)cc1 [Example 18, 8-(toluene-4-sulphonyl)-1-oxa-2,8-diaza-spiro[4,5]dec-2-ene-3-carboxylic acid benzyl-phenethyl-amide] | 64 |  |
| CCOC(=O)C1CCCCN1C(=O)C1=NOC2(CCN(S(=O)(=O)c3ccc(Cl)s3)CC2)C1 (stereo not shown) [Example 155, 1-[8-(5-chloro-thiophene-2-sulphonyl)-1-oxa-2,8-diaza-spiro[4,5]dec-2-ene-3-carbonyl]-piperidine-2-carboxylic acid ethyl ester] | 41 |  |
| O=C(NCc1ccccc1)C1=NOC2(CCN(C(=O)COCc3ccccc3)CC2)C1 [Example 171, 8-(2-benzyloxy-acetyl)-1-oxa-2,8-diaza-spiro[4,5]dec-2-ene-3-carboxylic acid benzylamide] | 73 |  |
| O=C(NCc1ccccc1)C1=NOC2(CCN(C(=O)c3ccncc3)CC2)C1 [Example 102, 8-(pyridine-4-carbonyl)-1-oxa-2,8-diaza-spiro[4,5]dec-2-ene-3-carboxylic acid benzylamide] | 48 |  |
| O=C(NCc1cccs1)C1=NOC2(CCN(C(=O)CCCOc3ccccc3)CC2)C1 [Example 183] |  | 67 |
| O=C(NCC1CC1)C1=NOC2(CCN(C(=O)c3ccc(C(F)(F)F)c(F)c3)CC2)C1 [Example 110, 8-(3-fluoro-4-trifluoromethyl-benzoyl)-1-oxa-2,8-diaza-spiro[4,5]dec-2-ene-3-carboxylic acid cyclopropylmethyl-amide] | 45 |  |
| CSc1ncccc1C(=O)N1CCC2(CC1)CC(C(=O)NCC(C)C)=NO2 [Example 125, 8-(2-methylsulphanyl-pyridine-3-carbonyl)-1-oxa-2,8-diaza-spiro[4,5]dec-2-ene-3-carboxylic acid isobutyl-amide] | 40 |  |
| CC(NC(=O)C1=NOC2(CCN(S(=O)(=O)c3ccc(F)cc3)CC2)C1)c1ccc([N+](=O)[O-])cc1 (stereo not shown) [Example 213, 8-(4-fluoro-benzenesulphonyl)-1-oxa-2,8-diaza-spiro[4,5]dec-2-ene-3-carboxylic acid [1-(4-nitro-phenyl)-ethyl]-amide] | 46 |  |
| O=C(NCC1CCCO1)C1=NOC2(CCN(C(=O)c3ccc(F)cc3F)CC2)C1 (stereo not shown) [Example 112] |  | 45 |
| C=C(C)CN(CC)C(=O)C1=NOC2(CCN(S(=O)(=O)c3ccc(OC(F)(F)F)cc3)CC2)C1 [Example 103, 8-(4-trifluoromethoxy-benzenesulphonyl)-1-oxa-2,8-diaza-spiro[4,5]dec-2-ene-3carboxylic acid ethyl-(2-methyl-allyl)-amide] | 47 |  |
| O=C(C1=NOC2(CCN(S(=O)(=O)c3ccc(F)cc3)CC2)C1)N1CCN(CCCc2ccccc2)CC1 [Example 186, [8-(4-fluoro-benzenesulphonyl)-1-oxa-2,8-diaza-spiro[4,5]dec-2-en-3-yl]-[4-(3-phenyl-propyl)-piperazin-1-yl]-methanone] | 63 |  |
| O=C(NCc1ccccc1)C1=NOC2(CCN(S(=O)(=O)c3cccc(Cl)c3)CC2)C1 [Example 210, 8-(3-chloro-benzenesulphonyl)-1-oxa-2,8-diaza-spiro[4,5]dec-2-ene-3-carboxylic acid benzylamide] | 42 |  |
| Cc1ccc(S(=O)(=O)N2CCC3(CC2)CC(C(=O)N2CCN(C(C)c4ccccc4)CC2)=NO3)cc1 (stereo not drawn) [Example 32, [4-(1-phenyl-ethyl)-piperazin-l-yl]-[8-(toluene-4-sulphonyl)-1-oxa-2,8-diaza-spiro[4,5]dec-2-en-3-yl]-methanone] |  | 43 |
